Results on 13 molecules are retold here after ChEMBL document CHEMBL1909046, “DrugMatrix in vitro pharmacology data”.

For test [1], the target named is T1, Alpha-2A adrenergic receptor (Homo sapiens, UniProt P08913). Also: in other assays of this panel Not Active means under 50% inhibition at 10 µM.
T1 sequence (P08913 whole entry): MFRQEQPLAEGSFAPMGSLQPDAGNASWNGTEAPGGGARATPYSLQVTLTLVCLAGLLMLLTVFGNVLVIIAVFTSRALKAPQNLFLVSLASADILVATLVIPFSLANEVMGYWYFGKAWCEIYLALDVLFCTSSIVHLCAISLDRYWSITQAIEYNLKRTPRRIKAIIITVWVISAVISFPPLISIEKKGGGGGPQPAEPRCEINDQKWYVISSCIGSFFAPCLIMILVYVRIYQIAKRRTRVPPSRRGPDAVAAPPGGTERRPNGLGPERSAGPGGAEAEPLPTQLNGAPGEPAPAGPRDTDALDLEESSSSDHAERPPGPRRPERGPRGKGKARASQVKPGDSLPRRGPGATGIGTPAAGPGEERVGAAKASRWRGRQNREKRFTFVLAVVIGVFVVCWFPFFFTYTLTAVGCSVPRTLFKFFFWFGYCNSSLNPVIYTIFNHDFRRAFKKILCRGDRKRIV
The format is cell membranes, Sf9, Membrane. Particulars: sf9.

The target in test [2] is Vascular endothelial growth factor receptor 1 (Homo sapiens, UniProt P17948). The test can be described thus: biochemical. The format is cell-based, HUVEC. Particulars: huvec. Also: in other assays of this panel Not Active means under 50% inhibition at 10 µM.
Vascular endothelial growth factor receptor 1, sequence (P17948 whole entry): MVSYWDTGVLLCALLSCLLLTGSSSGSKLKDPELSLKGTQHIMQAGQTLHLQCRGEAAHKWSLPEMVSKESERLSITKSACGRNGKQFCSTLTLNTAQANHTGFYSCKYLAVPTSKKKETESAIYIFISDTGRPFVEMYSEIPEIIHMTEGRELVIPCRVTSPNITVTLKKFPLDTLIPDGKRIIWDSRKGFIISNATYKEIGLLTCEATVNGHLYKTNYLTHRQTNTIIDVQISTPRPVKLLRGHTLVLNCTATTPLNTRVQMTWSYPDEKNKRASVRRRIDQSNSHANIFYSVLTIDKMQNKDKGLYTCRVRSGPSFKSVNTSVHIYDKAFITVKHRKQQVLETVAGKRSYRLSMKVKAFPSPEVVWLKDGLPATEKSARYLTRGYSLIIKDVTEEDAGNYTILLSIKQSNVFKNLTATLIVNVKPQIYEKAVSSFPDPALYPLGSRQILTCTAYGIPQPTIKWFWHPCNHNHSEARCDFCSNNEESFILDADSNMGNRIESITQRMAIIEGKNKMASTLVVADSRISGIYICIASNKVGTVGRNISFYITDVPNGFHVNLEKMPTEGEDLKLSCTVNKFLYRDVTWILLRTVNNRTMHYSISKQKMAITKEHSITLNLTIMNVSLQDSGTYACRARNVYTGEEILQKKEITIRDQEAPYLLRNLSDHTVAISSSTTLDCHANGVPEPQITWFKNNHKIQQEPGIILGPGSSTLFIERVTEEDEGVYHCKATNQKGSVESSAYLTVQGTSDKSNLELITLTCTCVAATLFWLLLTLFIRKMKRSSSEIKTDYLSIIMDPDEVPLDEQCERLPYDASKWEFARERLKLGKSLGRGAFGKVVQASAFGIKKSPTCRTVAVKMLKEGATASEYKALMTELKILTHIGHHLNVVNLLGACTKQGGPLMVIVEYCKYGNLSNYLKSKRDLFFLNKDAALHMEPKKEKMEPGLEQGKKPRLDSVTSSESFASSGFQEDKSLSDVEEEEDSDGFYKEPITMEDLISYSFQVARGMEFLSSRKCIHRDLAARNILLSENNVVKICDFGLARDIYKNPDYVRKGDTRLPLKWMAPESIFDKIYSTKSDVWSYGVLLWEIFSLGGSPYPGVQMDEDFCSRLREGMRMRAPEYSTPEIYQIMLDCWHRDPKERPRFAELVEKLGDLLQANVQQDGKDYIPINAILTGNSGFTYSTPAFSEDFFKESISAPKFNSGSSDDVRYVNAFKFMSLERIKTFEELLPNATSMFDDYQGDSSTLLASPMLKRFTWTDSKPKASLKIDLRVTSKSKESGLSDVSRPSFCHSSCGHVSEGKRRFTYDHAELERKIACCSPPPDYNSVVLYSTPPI
Test [3] in a line: DRUGMATRIX: Calcium Channel Type L, Phenylalkylamine radioligand binding (ligand: [3H] (-)-Desmethoxyverapamil (D-888)). The format is cell membranes, Rattus norvegicus, Wistar, Brain, Membrane. The following applies: Not Active = under 50% inhibition at 10 µM.
The nature of test [4]: DRUGMATRIX: Glutamate, NMDA, Phencyclidine radioligand binding (ligand: [3H] TCP). The format is cell membranes, Rattus norvegicus, Wistar, Cerebral cortex, Membrane. The following applies: Not Active = under 50% inhibition at 10 µM.
A short description of test [5]: DRUGMATRIX: Imidazoline I2, Central radioligand binding (ligand: [3H] Idazoxan). The format is cell membranes, Rattus norvegicus, Wistar, Cerebral cortex, Membrane. The following applies: Not Active = under 50% inhibition at 10 µM.

As to `C[C@]12C=CC(=O)C=C1CC[C@@H]1[C@@H]2[C@@H](O)C[C@@]2(C)[C@H]1CC[C@]2(O)C(=O)CO` [PREDNISOLONE], the IC50 result in test [1], in test [2], in test [3], in test [4] and in test [5] was “Not Active” each time. In addition, the Ki result in test [3], in test [4] and in test [5] was “Not Active” throughout.
As for `CC(=O)[C@H]1[C@H](C#N)C[C@H]2[C@@H]3CC=C4C[C@@H](O)CC[C@]4(C)[C@H]3CC[C@@]21C` [PREGNENOLONE CARBONITRILE], the half-inhibitory concentration (IC50) result in test [1], in test [2], in test [3], in test [4] and in test [5] was “Not Active” in each case. Besides, the Ki result in test [3], in test [4] and in test [5] was “Not Active” in each case.
On to `CCCN(CCC)S(=O)(=O)c1ccc(C(=O)O)cc1` [PROBENECID], for which the IC50 entry in test [1], in test [2], in test [3], in test [4] and in test [5] was “Not Active” each time. For the same molecule, the Ki result in test [3], in test [4] and in test [5] was “Not Active” throughout.
With `CCCNCC(O)COc1ccccc1C(=O)CCc1ccccc1` (centres undefined) [PROPAFENONE], the IC50 entry in test [1] is “Not Active”; in test [2], “Not Active”; in test [3] (read-out: IC50), 1740 nM; in test [4], “Not Active”; in test [5], “Not Active”. Moreover, the Ki in test [3] (read-out: Ki) is 1700 nM; in test [4], “Not Active”; in test [5], “Not Active”.
`CCCOc1ccc(C(=O)OCCN(CC)CC)cc1N` [PROPARACAINE]: the IC50 entry in test [1], in test [2], in test [3], in test [4] and in test [5] was “Not Active” throughout. The inhibition constant (Ki) entry in test [3], in test [4] and in test [5] was “Not Active” each time.
Turning to `CC(C)c1cccc(C(C)C)c1O` [PROPOFOL], the IC50 entry in test [1], in test [2], in test [3], in test [4] and in test [5] was “Not Active” each time. For the same molecule, the Ki result in test [3], in test [4] and in test [5] was “Not Active” each time.
Consider `C[C@@H]1O[C@@H](O[C@@H]2C=C3CC[C@@H]4[C@H](CC[C@]5(C)[C@@H](c6ccc(=O)oc6)CC[C@]45O)[C@@]3(C)CC2)[C@H](O)[C@H](O)[C@H]1O` [PROSCILLARIDIN], for which the IC50 result in test [1], in test [2], in test [3], in test [4] and in test [5] was “Not Active” throughout. Further, the Ki entry in test [3], in test [4] and in test [5] was “Not Active” in each case.
As for `Oc1cccc(O)c1O` [PYROGALLOL], the IC50 result in test [1], in test [2], in test [3], in test [4] and in test [5] was “Not Active” each time. Also, the inhibition constant Ki result in test [3], in test [4] and in test [5] was “Not Active” in each case.
With AURANOFIN, the IC50 in test [1] (read-out: IC50) was 884 nM; in test [2], “Not Active”; in test [3], “Not Active”; in test [4] it was “Not Active”; in test [5], “Not Active”. Also, the Ki is 331 nM in test [1] (read-out: Ki); “Not Active” in test [2]; “Not Active” in test [3]; “Not Active” in test [4]; “Not Active” in test [5].
For the molecule GADOPENTETATE DIMEGLUMINE, the IC50 result in test [1], in test [2], in test [3], in test [4] and in test [5] was “Not Active” in each case. Moreover, the Ki result in test [1], in test [2], in test [3], in test [4] and in test [5] was “Not Active” in each case.
On to GENTAMICIN, for which the IC50 entry in test [1], in test [2], in test [3], in test [4] and in test [5] was “Not Active” each time. Further, the Ki entry in test [1], in test [2], in test [3], in test [4] and in test [5] was “Not Active” throughout.
With GRAMICIDIN, the IC50 entry in test [1], in test [2], in test [3], in test [4] and in test [5] was “Not Active” each time. Moreover, the Ki entry in test [1], in test [2], in test [3], in test [4] and in test [5] was “Not Active” in each case.
In the case of NYSTATIN, the IC50 entry in test [1], in test [2], in test [3], in test [4] and in test [5] was “Not Active” in each case. Besides, the Ki entry in test [1], in test [2], in test [3], in test [4] and in test [5] was “Not Active” in each case.
